{
  "source": "patent US20090181086A1",
  "about": "(priority 2008, published 2009)",
  "origin": "cited, not measured here",
  "key": {"platelet MAO-B": {"molecular_target": "platelet MAO-B (Homo sapiens, UniProt P27338)", "sequence (P27338 whole entry)": "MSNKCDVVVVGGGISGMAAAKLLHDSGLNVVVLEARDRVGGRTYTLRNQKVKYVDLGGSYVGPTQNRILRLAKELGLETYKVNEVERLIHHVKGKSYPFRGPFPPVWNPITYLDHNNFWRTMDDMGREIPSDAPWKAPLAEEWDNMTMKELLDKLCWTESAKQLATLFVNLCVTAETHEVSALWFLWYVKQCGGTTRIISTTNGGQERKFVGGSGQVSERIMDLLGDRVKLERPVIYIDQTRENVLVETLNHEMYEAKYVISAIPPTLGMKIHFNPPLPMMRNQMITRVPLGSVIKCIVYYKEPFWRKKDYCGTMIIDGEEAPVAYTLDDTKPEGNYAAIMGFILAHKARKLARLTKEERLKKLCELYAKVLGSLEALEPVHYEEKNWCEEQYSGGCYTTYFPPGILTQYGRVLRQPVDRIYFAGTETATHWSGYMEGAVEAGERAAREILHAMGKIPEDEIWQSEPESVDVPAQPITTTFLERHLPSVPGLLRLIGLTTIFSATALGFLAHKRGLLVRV"}, "human albumin": {"molecular_target": "human albumin (Homo sapiens, UniProt P02768)", "sequence (P02768 25-609)": "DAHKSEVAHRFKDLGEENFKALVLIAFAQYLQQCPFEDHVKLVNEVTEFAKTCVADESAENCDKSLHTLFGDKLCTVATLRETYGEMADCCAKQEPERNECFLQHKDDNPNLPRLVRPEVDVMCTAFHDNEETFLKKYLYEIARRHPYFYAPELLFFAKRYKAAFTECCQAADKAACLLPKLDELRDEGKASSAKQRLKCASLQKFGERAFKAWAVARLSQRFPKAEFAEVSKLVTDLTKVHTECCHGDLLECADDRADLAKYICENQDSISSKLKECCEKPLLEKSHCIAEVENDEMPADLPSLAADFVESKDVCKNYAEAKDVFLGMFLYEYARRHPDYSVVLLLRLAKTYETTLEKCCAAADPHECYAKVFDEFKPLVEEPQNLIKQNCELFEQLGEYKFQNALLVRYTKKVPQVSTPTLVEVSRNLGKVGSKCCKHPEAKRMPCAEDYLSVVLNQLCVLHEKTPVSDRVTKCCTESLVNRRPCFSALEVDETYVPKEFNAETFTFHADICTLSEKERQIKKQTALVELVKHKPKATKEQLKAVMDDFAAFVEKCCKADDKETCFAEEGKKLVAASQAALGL", "details": "concentration range of 1-100 ng/mL"}, "[1]": {"system": "monoamine oxidase type B (MAO-B)", "details": "ex vivo, brain, liver and intestinal tissues"}, "CYP1A2": {"molecular_target": "CYP1A2 (Homo sapiens, UniProt P05177)", "sequence (P05177 whole entry, species assumed)": "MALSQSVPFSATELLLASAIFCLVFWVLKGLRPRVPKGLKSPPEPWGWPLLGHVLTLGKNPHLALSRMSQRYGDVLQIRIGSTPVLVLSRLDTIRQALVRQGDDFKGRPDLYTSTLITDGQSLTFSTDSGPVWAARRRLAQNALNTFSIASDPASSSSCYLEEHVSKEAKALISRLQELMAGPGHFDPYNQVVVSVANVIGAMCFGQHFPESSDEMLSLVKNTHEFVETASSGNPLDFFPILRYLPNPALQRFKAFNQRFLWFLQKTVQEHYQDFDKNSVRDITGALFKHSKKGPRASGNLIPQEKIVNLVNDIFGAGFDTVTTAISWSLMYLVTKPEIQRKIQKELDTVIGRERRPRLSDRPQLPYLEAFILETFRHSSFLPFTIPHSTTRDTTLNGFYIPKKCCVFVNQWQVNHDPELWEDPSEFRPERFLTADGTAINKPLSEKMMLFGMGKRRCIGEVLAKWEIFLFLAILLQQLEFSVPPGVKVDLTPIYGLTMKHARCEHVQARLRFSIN", "details": "in vitro"}, "[2]": {"details": "oral 14C-labeled rasagiline, over 7 days"}},
  "note": "Like-named read-outs stand apart in the source and are kept apart here.",
  "data": [
    {"smiles": "C#CCN[C@@H]1CCc2ccccc21", "note": "[rasagiline, R(+)-N-propargyl-1-aminoindan]", "values": [
      {"measurement": "MAO-B inhibition", "setting": "platelet MAO-B; 3 days after daily dosing at 2 mg/day, maintained 3 days post-dose", "result": "Over 90%"},
      {"measurement": "MAO-B inhibition", "setting": "platelet MAO-B; after a single rasagiline dose of 1 mg/day", "result": "25-35%"},
      {"measurement": "MAO-B inhibition", "setting": "platelet MAO-B; after a single rasagiline dose of 2 mg/day", "result": "more than 55%"},
      {"measurement": "duration of platelet MAO-B inhibition after last dose", "setting": "platelet MAO-B; human, in vivo", "result": "at least 1 week"},
      {"measurement": "MAO-B inhibition, in words", "setting": "platelet MAO-B; multiple doses of 0.5, 1 and 2 mg per day", "result": "complete MAO-B inhibition"},
      {"measurement": "MAO-B inhibition in platelets, in words", "setting": "platelet MAO-B; recommended therapeutic dose", "result": "potent and irreversible inhibitor of MAO-B"},
      {"measurement": "mean extent of binding to human albumin", "setting": "human albumin", "result": "61-63%"},
      {"measurement": "Plasma protein binding", "setting": "plasma protein", "result": "88-94%"},
      {"measurement": "MAO-B inhibition, in words", "setting": "[1]", "result": "potent, irreversible monoamine oxidase type B (MAO-B) selective inhibitor"},
      {"measurement": "isoenzyme involved in rasagiline metabolism, in words", "setting": "CYP1A2", "result": "CYP1A2 being the major isoenzyme involved"},
      {"measurement": "pharmacokinetics versus dose, in words", "setting": "doses over the range of 1-10 mg", "result": "linear"},
      {"measurement": "absolute bioavailability", "setting": "human, in vivo", "result": "about 36%"},
      {"measurement": "effect of food on Tmax, in words", "setting": "human, in vivo", "result": "does not affect"},
      {"measurement": "excreted as unchanged drug in urine", "setting": "human, in vivo", "result": "Less than 1%"},
      {"measurement": "mean steady-state half life", "setting": "human, in vivo", "result": 3, "unit": "h"},
      {"measurement": "mean volume of distribution at steady-state", "setting": "human, in vivo", "result": 87, "unit": "L"},
      {"measurement": "elimination via feces", "setting": "[2]", "result": "7 % of total dose"},
      {"measurement": "elimination via urine", "setting": "[2]", "result": "62 % of total dose"},
      {"measurement": "total calculated recovery", "setting": "oral 14C-labeled rasagiline, over a period of 38 days", "result": "84 % of the dose"},
      {"measurement": "decrease of Cmax", "setting": "taken with a high fat meal", "result": "approximately 60%"},
      {"measurement": "decrease of exposure (AUC)", "setting": "taken with a high fat meal", "result": "~20", "unit": "%"}
    ]}
  ]
}
